Measured values as given in patent publication US7396837B2, “Antitumoral analogs of lamellarins” (Pharma Mar, S.A.U., priority 2002, dated 2008).

What follows are molecules tested on SK-MEL-28 (assay: SRB colorimetric cell growth inhibition assay, SK-MEL-28). Conditions: Homo sapiens, SK-MEL-28, MEL-28; GI=growth inhibition; read-out: GI50 MEL-28.
Type: cell-based
Method in brief: (§1)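 Continuous drug exposure of human cancer cells; SRB protein stain read-out; triplicate wells, mean ± SD; GI, TGI, LC computed.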
`COc1cc(-c2c3c4cc(OC)c(OC(=O)C[C@H](N)C(C)C)cc4oc(=O)c3n3ccc4cc(OC(=O)C[C@H](N)C(C)C)c(OC)cc4c23)ccc1OC(=O)C[C@H](N)C(C)C` [Compound 206] gave a GI50 of 44 nM.

Same assay, conditions: Homo sapiens, SK-MEL-28, MEL-28; cell killing (cytotoxic effect); read-out: LC50 MEL-28
`COc1cc(-c2c3c4cc(OC)c(OC(=O)C[C@H](N)C(C)C)cc4oc(=O)c3n3ccc4cc(OC(=O)C[C@H](N)C(C)C)c(OC)cc4c23)ccc1OC(=O)C[C@H](N)C(C)C` [Compound 206] was tested, and the CC50 was 1040 nM.

Same assay, conditions: Homo sapiens, SK-MEL-28, MEL-28; total growth inhibition (cytostatic effect); read-out: TGI MEL-28
`COc1cc(-c2c3c4cc(OC)c(OC(=O)C[C@H](N)C(C)C)cc4oc(=O)c3n3ccc4cc(OC(=O)C[C@H](N)C(C)C)c(OC)cc4c23)ccc1OC(=O)C[C@H](N)C(C)C` [Compound 206] showed an IC (TGI) of 0.169 µM.

What follows are molecules tested on SK-BR-3 (assay: SRB colorimetric cell growth inhibition assay, SK-BR-3). Conditions: Homo sapiens, SK-BR-3, SK-BR-3; GI=growth inhibition; read-out: GI50 SK-BR-3.
Type: cell-based
Method in brief: as §1
`COc1cc(-c2c3c4cc(OC)c(OC(=O)C[C@H](N)C(C)C)cc4oc(=O)c3n3ccc4cc(OC(=O)C[C@H](N)C(C)C)c(OC)cc4c23)ccc1OC(=O)C[C@H](N)C(C)C` [Compound 206] showed a GI50 of 70.1 nM.

Same assay, conditions: Homo sapiens, SK-BR-3, SK-BR-3; cell killing (cytotoxic effect); read-out: LC50 SK-BR-3
Work on `COc1cc(-c2c3c4cc(OC)c(OC(=O)C[C@H](N)C(C)C)cc4oc(=O)c3n3ccc4cc(OC(=O)C[C@H](N)C(C)C)c(OC)cc4c23)ccc1OC(=O)C[C@H](N)C(C)C` [Compound 206] yielded a CC50 of 2890 nM.

Same assay, conditions: Homo sapiens, SK-BR-3, SK-BR-3; total growth inhibition (cytostatic effect); read-out: TGI SK-BR-3
With `COc1cc(-c2c3c4cc(OC)c(OC(=O)C[C@H](N)C(C)C)cc4oc(=O)c3n3ccc4cc(OC(=O)C[C@H](N)C(C)C)c(OC)cc4c23)ccc1OC(=O)C[C@H](N)C(C)C` [Compound 206] the IC (TGI) was 0.451 µM.

The molecules below were run on K-562 (assay: SRB colorimetric cell growth inhibition assay, K-562). Conditions: Homo sapiens, K562, K-562; GI=growth inhibition; read-out: GI50 K-562.
Type: cell-based
Method in brief: as §1
In the case of `COc1cc(-c2c3c4cc(OC)c(OC(=O)C[C@H](N)C(C)C)cc4oc(=O)c3n3ccc4cc(OC(=O)C[C@H](N)C(C)C)c(OC)cc4c23)ccc1OC(=O)C[C@H](N)C(C)C` [Compound 206], the GI50 is reported as 31.1 nM.

Same assay, conditions: Homo sapiens, K562, K-562; cell killing (cytotoxic effect); read-out: LC50 K-562
For `COc1cc(-c2c3c4cc(OC)c(OC(=O)C[C@H](N)C(C)C)cc4oc(=O)c3n3ccc4cc(OC(=O)C[C@H](N)C(C)C)c(OC)cc4c23)ccc1OC(=O)C[C@H](N)C(C)C` [Compound 206], the CC50 was 4.23 µM.

Same assay, conditions: Homo sapiens, K562, K-562; total growth inhibition (cytostatic effect); read-out: TGI K-562
Work on `COc1cc(-c2c3c4cc(OC)c(OC(=O)C[C@H](N)C(C)C)cc4oc(=O)c3n3ccc4cc(OC(=O)C[C@H](N)C(C)C)c(OC)cc4c23)ccc1OC(=O)C[C@H](N)C(C)C` [Compound 206] yielded an IC (TGI) of 1.11 µM.

These molecules were tested on HeLa-APL (assay: SRB colorimetric cell growth inhibition assay, HeLa-APL (aplidine resistant)). Conditions: Homo sapiens, HELA-APL; GI=growth inhibition; read-out: GI50 HELA-APL.
Type: cell-based
Method in brief: as §1
In the case of `COc1cc(-c2c3c4cc(OC)c(OC(=O)C[C@H](N)C(C)C)cc4oc(=O)c3n3ccc4cc(OC(=O)C[C@H](N)C(C)C)c(OC)cc4c23)ccc1OC(=O)C[C@H](N)C(C)C` [Compound 206], the GI50 is reported as 83.4 nM.

Same assay, conditions: Homo sapiens, HELA-APL; cell killing (cytotoxic effect); read-out: LC50 HELA-APL
With `COc1cc(-c2c3c4cc(OC)c(OC(=O)C[C@H](N)C(C)C)cc4oc(=O)c3n3ccc4cc(OC(=O)C[C@H](N)C(C)C)c(OC)cc4c23)ccc1OC(=O)C[C@H](N)C(C)C` [Compound 206] the CC50 was 2820 nM.

Same assay, conditions: Homo sapiens, HELA-APL; total growth inhibition (cytostatic effect); read-out: TGI HELA-APL
`COc1cc(-c2c3c4cc(OC)c(OC(=O)C[C@H](N)C(C)C)cc4oc(=O)c3n3ccc4cc(OC(=O)C[C@H](N)C(C)C)c(OC)cc4c23)ccc1OC(=O)C[C@H](N)C(C)C` [Compound 206] showed an IC (TGI) of 0.523 µM.

These molecules were tested on HT-29 (assay: SRB colorimetric cell growth inhibition assay, HT-29). Conditions: Homo sapiens, HT-29, HT-29; GI=growth inhibition; read-out: GI50 HT-29.
Type: cell-based
Method in brief: as §1
In the case of `COc1cc(-c2c3c4cc(OC)c(OC(=O)C[C@H](N)C(C)C)cc4oc(=O)c3n3ccc4cc(OC(=O)C[C@H](N)C(C)C)c(OC)cc4c23)ccc1OC(=O)C[C@H](N)C(C)C` [Compound 206], the GI50 is reported as 1320 nM.

Same assay, conditions: Homo sapiens, HT-29, HT-29; cell killing (cytotoxic effect); read-out: LC50 HT-29
Work on `COc1cc(-c2c3c4cc(OC)c(OC(=O)C[C@H](N)C(C)C)cc4oc(=O)c3n3ccc4cc(OC(=O)C[C@H](N)C(C)C)c(OC)cc4c23)ccc1OC(=O)C[C@H](N)C(C)C` [Compound 206] yielded a CC50 of 10.5 µM.

Same assay, conditions: Homo sapiens, HT-29, HT-29; total growth inhibition (cytostatic effect); read-out: TGI HT-29
`COc1cc(-c2c3c4cc(OC)c(OC(=O)C[C@H](N)C(C)C)cc4oc(=O)c3n3ccc4cc(OC(=O)C[C@H](N)C(C)C)c(OC)cc4c23)ccc1OC(=O)C[C@H](N)C(C)C` [Compound 206] gave an IC (TGI) of 10.5 µM.

What follows are molecules tested on IGROV-ET (assay: SRB colorimetric cell growth inhibition assay, IGROV-ET (ET-743 resistant)). Conditions: Homo sapiens, IGROV-ET; GI=growth inhibition; read-out: GI50 IGROV-ET.
Type: cell-based
Method in brief: as §1
`COc1cc(-c2c3c4cc(OC)c(OC(=O)C[C@H](N)C(C)C)cc4oc(=O)c3n3ccc4cc(OC(=O)C[C@H](N)C(C)C)c(OC)cc4c23)ccc1OC(=O)C[C@H](N)C(C)C` [Compound 206] gave a GI50 of 29.7 nM.

Same assay, conditions: Homo sapiens, IGROV-ET; cell killing (cytotoxic effect); read-out: LC50 IGROV-ET
Molecule `COc1cc(-c2c3c4cc(OC)c(OC(=O)C[C@H](N)C(C)C)cc4oc(=O)c3n3ccc4cc(OC(=O)C[C@H](N)C(C)C)c(OC)cc4c23)ccc1OC(=O)C[C@H](N)C(C)C` [Compound 206] has a CC50 of 589 nM.

Same assay, conditions: Homo sapiens, IGROV-ET; total growth inhibition (cytostatic effect); read-out: TGI IGROV-ET
In the case of `COc1cc(-c2c3c4cc(OC)c(OC(=O)C[C@H](N)C(C)C)cc4oc(=O)c3n3ccc4cc(OC(=O)C[C@H](N)C(C)C)c(OC)cc4c23)ccc1OC(=O)C[C@H](N)C(C)C` [Compound 206], the IC (TGI) is reported as 0.19 µM.

The molecules below were run on HeLa (assay: SRB colorimetric cell growth inhibition assay, HeLa). Conditions: Homo sapiens, HeLa; GI=growth inhibition; read-out: GI50 HELA.
Type: cell-based
Method in brief: as §1
In the case of `COc1cc(-c2c3c4cc(OC)c(OC(=O)C[C@H](N)C(C)C)cc4oc(=O)c3n3ccc4cc(OC(=O)C[C@H](N)C(C)C)c(OC)cc4c23)ccc1OC(=O)C[C@H](N)C(C)C` [Compound 206], the GI50 is reported as 50.5 nM.

Same assay, conditions: Homo sapiens, HeLa; cell killing (cytotoxic effect); read-out: LC50 HELA
`COc1cc(-c2c3c4cc(OC)c(OC(=O)C[C@H](N)C(C)C)cc4oc(=O)c3n3ccc4cc(OC(=O)C[C@H](N)C(C)C)c(OC)cc4c23)ccc1OC(=O)C[C@H](N)C(C)C` [Compound 206] showed a CC50 of 1930 nM.

Same assay, conditions: Homo sapiens, HeLa; total growth inhibition (cytostatic effect); read-out: TGI HELA
Work on `COc1cc(-c2c3c4cc(OC)c(OC(=O)C[C@H](N)C(C)C)cc4oc(=O)c3n3ccc4cc(OC(=O)C[C@H](N)C(C)C)c(OC)cc4c23)ccc1OC(=O)C[C@H](N)C(C)C` [Compound 206] yielded an IC (TGI) of 0.33 µM.
